The record followed here is US6989362B1, “Methods of treating dopamine dysregulation using agents that regulate phosphorylation/dephosphorylation in dopamine signaling” (The Rockefeller University, priority 1999, dated 2006).

In test [1] the test system is dissociated striatal neurons. Kind of test: Whole-cell voltage-gated Ca2+ current, patch-clamp of dissociated striatal neurons. To be noted: 10 μM. The class given is cell-based, mouse. As to the method:
The physiological consequence of PKA inhibition by phospho-Thr75 DARPP-32 was also assessed. […] Opin. Neurobiol. 8:330-334 (1998)], were analyzed using patch-clamp recordings of dissociated striatal neurons (FIGS. 3g and 3h). […] This effect was virtually abolished in neurons from DARPP-32 knockout mice (1.6±0.3%, n=5, p<0.01, paired t test).

The subject of a further test is mouse striatal slices. Description: Phosphorylation of PKA substrates in striatal slices treated with roscovitine. To be noted: 10 μM, 1 h.
Test [2] relates to Cdk5. Kind of test: Cocaine-induced locomotor activity with intra-accumbens infusion of Cdk5 inhibitors. The class given is in vivo, rat. To be noted: rats, intra-accumbens 40 nmol/0.5 μl.
Protocol: Doses of cocaine hydrochloride (15 mg/kg i.p. in sterile 0.9% sodium chloride) were chosen to produce a moderate response to cocaine over successive days. […] Drugs were dissolved in sterile phosphate buffered saline containing 50% DMSO. Intracerebral microinfusions were made bilaterally in volumes of 0.5 μl over a period of 2 min with an additional 2 min allowed to elapse prior to removal of the infusion needles and replacement of the stylettes. […] Drugs were given at the same time each day. Subjects were then placed into the chambers and activity was monitored for 60 min.
A further test has as its system D1 receptor. Description: D1 agonist-induced phosphorylation of PKA substrates in striatal slices. The class given is cell-based, mouse. To be noted: 1 μM, 10 min. As to the method: Dopamine achieves many of its effects in neurons by activation of the D1 class of dopamine receptors, which are positively coupled to the activation of PKA. […] For this purpose, the state of phosphorylation of GluR1, DARPP-32, ARPP-21, and ARPP-16 was determined using phosphorylation state-specific antibodies. […] No significant difference was observed between wildtype and p35^−/− mice in basal levels of phosphorylation of any of these substrates.

Test [3] has as its system Cdk5. Description: Cdk5 mRNA and protein levels in striatum after chronic cocaine. The class given is in vivo, rat. From the text:
FIGS. 8A-8C show the increased expression of Cdk5 in inducible transgenic mice overexpressing ΔFosB and in rats chronically treated with cocaine. […] The positions of oligonucleotides encoding ΔFosB and Cdk5 are indicated. […] Representative labelings are shown for sections from inducible transgenic mice on (Dox) or off doxycycline (H2O) (left) and rats treated chronically with saline or cocaine (right). Quantitation of signals in the caudatoputaman (CP) and nucleus accumbens (NA) are shown. […] Representative Cdk5 immunoblots of striatal tissue dissected from inducible transgenic mice on or off doxycycline (left) and from rats treated chronically with saline or cocaine (right) are shown with quantitation. Data represent means ±SEM for n=6; *p<0.05 compared to control, Student's t test.
ΔFosB-inducible transgenic mice were either fed […] doxycycline or denied doxycycline for 12 weeks. Adult male Sprague-Dawley rats initially weighing between 160-240 g were injected with cocaine or vehicle (i.p., 20 mg/kg, […]) at the same time each day for 8 days. All analyses were initiated 12 hr after the final dose. For in situ hybridization studies, [α-^35S]UTP-labeled riboprobes were prepared by in vitro transcription from cDNA clones corresponding to full-length clones of rat Cdk5 [Zheng et al., J. Neurobiol. 35:141-159 (1998)]. Cryostat sections were prepared and hybridized as previously described. After hybridization, the sections were exposed to Biomax MR film (Kodak) for 2-6 days. All autoradiograms were analyzed with a Microcomputer Imaging Device system (M4, Imaging Research, Inc.) as described elsewhere [Le Moine and Bloch, J. Comp. Neurol. 355:418426 (1995)]. Statistical analyses of the data were performed using two-tailed unpaired Student's t test. Striatal tissue was rapidly dissected on ice and homogenized in boiling lysis buffer containing 1% SDS and 50 mM sodium flouride with sonication. Striatal slice preparation and treatment were conducted as previously described [Example 1, Bibb et al., Nature 402:669-671 (1999); Nishi et al., J. Neurosci 17:8147-8155 (1997)]. […]

Where [4] appears, read: rats, 20 mg/kg i.p. daily for 8 days, in situ hybridization.

In the case of `CC[C@H](CO)Nc1nc(NCc2ccccc2)c2ncn(C(C)C)c2n1` [roscovitine], the “enhancement of whole-cell Ca2+ current” value in test [1] (neurons from DARPP-32 knockout mice) is recorded as 1.6±0.3%. For the same molecule, the “enhancement of whole-cell Ca2+ current” value in test [1] (wildtype neurons) is reported as 9.7% ±1.0%. For the same molecule, the “increase in phospho-Ser845 GluR1” value in the test with mouse striatal slices (striatal slices from DARPP-32−/− mice) is on record as “not observed”. Also, the “Total GluR1 levels” value with mouse striatal slices (striatal slices) is given as “unaffected”. Further, in the test on mouse striatal slices (wildtype mouse striatal slices), the “increase in phosphorylation of ARPP-16 (phospho-Ser88)” value was 2.5±0.2 fold and the “increase in phosphorylation of GluR1 (phospho-Ser845)” value was 3.2±0.5 fold.

As to `Cn1cnc2nc(NCCO)nc(NCc3ccccc3)c21` [iso-olomoucine], the “locomotor or stereotypic responses to cocaine” value with Cdk5 [2] is on record as “failed to enhance”.

In the case of `Oc1cc2c(c(Cl)c1O)CCNCC2c1ccccc1` (stereo not drawn) [SKF 81297], the “phosphorylation of GluR1, DARPP-32, ARPP-21 and ARPP-16 (PKA sites)” value in the test with D1 receptor (p35−/− mouse striatal slices, versus wildtype) is “to an even greater extent”; with D1 receptor (wildtype mouse striatal slices), “increased”.

Turning to `COC(=O)[C@H]1[C@@H](OC(=O)c2ccccc2)C[C@@H]2CC[C@H]1N2C` [cocaine], the “Cdk5 protein levels in striatal tissue versus control” value in the test on Cdk5 [3] (rats exposed chronically, immunoblot) was determined as 180±20%. Besides, in the test with Cdk5 [3] (setting [4]), the “Cdk5 mRNA levels in caudatoputamen versus saline” value stood at 151.8±11.8% and the “Cdk5 mRNA levels in nucleus accumbens versus saline” value stood at 150.5±10.0%.
